Test results taken from patent publication US20210069213A1, “COMPOSITION AND METHOD OF TREATMENT FOR DRY A.M.D. (AGE RELATED MACULAR DEGENERATION)” (EYE CO PTY LTD, priority 2018, published 2021).
Like-named read-outs stand apart in the source and are kept apart here.

Assays:
[1] = test system: New Zealand albino rabbits; conditions: cited from earlier work; for ERG change in the other groups: intravitreal 2 mg, 1 mg, 400 μg/0.1 ml; for ERG change in the other groups / ERG change: two weeks after injection; for intravitreal (vitreous) haemorrhage: intravitreal 4 mg/0.1 mL; for ERG change: intravitreal 4 mg/0.1 ml
[2] = test system: monkey choroidal endothelial cells (CECs); conditions: PMA-stimulated CECs; FA compared with TA; cited from earlier work
[3] = test system: light-damage model of dry AMD; test: Light-damage model of dry AMD in mice; format: in vivo
[4] = test system: New Zealand albino rabbits; test: Intravitreal toxicology of fludrocortisone acetate in rabbit eyes; format: in vivo; conditions: based on vitreous volume, man 4 mL vs rabbit 1.5 mL
From the text: The eyes were enucleated and examined with light microscopy.
Investigative Ophthalmology & Visual Science, 2006. 47(13): p. 4281-4281 ]. […] Their eyes were enucleated and examined with light microscopy.

[5] = test system: subject with bi-lateral GA; test: Phase Ib study of intravitreal FA in patients with geographic atrophy; format: in vivo, human; conditions: single subject, 1 mg intravitreal
Procedure: A. Phase Ib, Study of Safety and Tolerability of Intravitreal Fludrocortisone Acetate (FA) and Triamcinolone (TA) in Patients with Geographic Atrophy (GA)
The identical protocol will be followed with TA.
Part 1 involves a single participant to assess safety and tolerability of 1 mg/0.1 mL FA. This participant will be followed for up to 28 days and reviewed by a safety review committee prior to the recruitment of a further 2 participants treated with 1 mg/0.1 mL FA totalling in 3 participants in the first cohort.
Visit 2 (Baseline)—All subjects: Unless specified, all ophthalmic procedures (including imaging) are to be performed on the Study eye only. 1. Verify that all inclusion/exclusion criteria are met, including the determination of eligibility by the PI. 2. Obtain information on any changes in medical health and/or the use of concomitant medications. 3. Collect vital signs pre- and post-dose. Vital signs will be measured within 1 hour prior to dosing for the pre-dose time point. Post-dose vital signs readings will be performed within 30 minutes after dosing. 4. Perform BCVA. 5. Perform LL-BCVA. 6. Perform a complete ophthalmic exam including slit-lamp exam of the cornea, iris, anterior chamber, lens (LOCS III if any opacity on the lens noted) and aqueous reaction (cells and flare), dilated fundus exam of the vitreous and retina and IOP measurement. 7. Perform the IVT injection of fludrocortisone acetate. 8. Monitor the study eye within 15 minutes' post injection. 9. Monitor for adverse events.
FIGS. 2 to 6 show the results of injection of fludrocortisone into one subject according to the Phase lb study.

[6] = biological target: T1, mineralocorticoid receptor (Homo sapiens, UniProt P08235); conditions: Table 1; hydrocortisone (cortisol) = 1; cited from earlier work
T1 sequence (P08235 1-984): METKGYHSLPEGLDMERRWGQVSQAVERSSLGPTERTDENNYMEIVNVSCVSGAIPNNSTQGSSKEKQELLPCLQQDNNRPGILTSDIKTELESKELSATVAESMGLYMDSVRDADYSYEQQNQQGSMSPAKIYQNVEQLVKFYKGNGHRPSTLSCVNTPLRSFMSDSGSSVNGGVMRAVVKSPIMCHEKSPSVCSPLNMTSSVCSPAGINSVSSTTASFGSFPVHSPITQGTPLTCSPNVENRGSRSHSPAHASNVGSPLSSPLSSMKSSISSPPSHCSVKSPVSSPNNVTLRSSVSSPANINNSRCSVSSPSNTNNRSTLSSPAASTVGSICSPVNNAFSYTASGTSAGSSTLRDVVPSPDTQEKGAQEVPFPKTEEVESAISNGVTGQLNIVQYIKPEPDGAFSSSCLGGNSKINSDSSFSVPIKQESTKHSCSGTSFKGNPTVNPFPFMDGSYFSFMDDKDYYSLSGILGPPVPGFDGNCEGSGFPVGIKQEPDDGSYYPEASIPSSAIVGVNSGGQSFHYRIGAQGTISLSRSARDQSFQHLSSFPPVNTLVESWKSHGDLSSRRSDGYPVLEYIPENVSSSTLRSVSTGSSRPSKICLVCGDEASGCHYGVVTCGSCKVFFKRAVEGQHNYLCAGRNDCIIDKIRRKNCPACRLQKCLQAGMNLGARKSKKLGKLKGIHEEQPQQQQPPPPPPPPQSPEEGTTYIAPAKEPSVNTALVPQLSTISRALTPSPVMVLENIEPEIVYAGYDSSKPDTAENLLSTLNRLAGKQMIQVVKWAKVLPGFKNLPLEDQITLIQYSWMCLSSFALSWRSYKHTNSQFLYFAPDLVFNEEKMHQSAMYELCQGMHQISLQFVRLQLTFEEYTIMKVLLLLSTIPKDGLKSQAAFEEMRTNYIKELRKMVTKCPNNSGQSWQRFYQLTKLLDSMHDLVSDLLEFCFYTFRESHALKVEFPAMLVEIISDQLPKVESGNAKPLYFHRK

[7] = FA delivered in Kenalog vehicle, 7 days later

CC(=O)OCC(=O)[C@@]1(O)CC[C@H]2[C@@H]3CCC4=CC(=O)CC[C@]4(C)[C@@]3(F)[C@@H](O)C[C@@]21C [Fludrocortisone acetate, 9-α-Fiuoro-11 β. 17 α, 21-trihydroxy-4-pregnene-3, 20 dione acetate]
histological examination of retinal sections (light microscopy) ([1]; 400 μg to 4 mg per eye): no evidence of toxicity or vacuolization except for one eye in the 4mg group
time by which all aggregates disappeared from the vitreous ([1]; 2-mg group): 22 ± 8 days
time by which all aggregates disappeared from the vitreous ([1]; 4-mg group): 33 ± 7 days
IOP ([1]; all groups): normal
ERG change in the other groups [1]: normal ERG
ERG change in the other groups ([1]; listed as FA): no other problems of reductions in ERG
intravitreal (vitreous) haemorrhage [1]: 1
intravitreal (vitreous) haemorrhage ([1]; listed as FA): Two eyes at 4 mg/0.1 ml experienced intravitreal haemorrhage
ERG change [1]: one eye injected with 4 mg/0.1 ml exhibited decreases in ERG output
ERG change ([1]; listed as FA): reduced ERG
signs of retinal toxicity on slit-lamp examination, indirect ophthalmoscopy, or light microscopy ([1]; rabbit, in vivo): no signs of retinal toxicity
tolerability in animal toxicology studies ([1]; rabbit, in vivo): well-tolerated
inflammation in anterior or posterior segment (slit lamp biomicroscopy, indirect ophthalmoscopy) ([1]; up to 40 days of observations, all treatment groups): did not show any evidence of significant inflammation
restoring quiescent morphology [2]: superior to TA
cell death [3, 7]: significantly less cell death
macrophages that carry the IBA1 marker [3, 7]: significantly fewer macrophages
Electroretinogram A-wave (Photoreceptor function) and B-wave (inner retinal function) ([3]; FA-treated animals): significantly more robust
outer nuclear layer thickness (histology) ([3]; FA-treated animals): much thicker outer nuclear layer
human equivalent dose [4]: 67 mg/eye every 4 weeks
external eye exam [5]: all normal
slit lamp biomicroscopy [5]: all normal, apart from a previous scar on the anterior chamber
vitreous haze grading [5]: absent
toxicity ([5]; left eye, day 28): no evidence of toxicity
visual acuity (VA) ([5]; left eye, day 28): improved visual acuity
MR potency [6]: 200
